# Measured values taken from ChEMBL document CHEMBL3885881, “DrugMatrix”.
# Species: Rattus norvegicus
# Test: DrugMatrix - Regimen: Daily Repeat
# Assay type: toxicity, organism-based, Sprague-Dawley
# Parameters: regimen Daily Repeat, gender Male, age 6-8 weeks
# Conditions: in vivo, po, route oral GAVAGE, vehicle .5 % CMC; for ABSOLUTE BASOPHIL / ABSOLUTE EOSINOPHIL / ABSOLUTE LYMPHOCYTE / ABSOLUTE MONOCYTE / ABSOLUTE SEGMENTED NEUTROPHIL / BASOPHIL / EOSINOPHIL / ERYTHROCYTE COUNT / HEMATOCRIT / HEMOGLOBIN / LEUKOCYTE COUNT / LYMPHOCYTE / MEAN CORPUSCULAR HEMOGLOBIN / MEAN CORPUSCULAR HEMOGLOBIN CONCENTRATION / MEAN CORPUSCULAR VOLUME / MONOCYTE / NEUTROPHIL / NUCLEATED RED BLOOD CELLS / PLATELET COUNT: tissue Blood; for ALANINE AMINOTRANSFERASE / ALBUMIN / ALKALINE PHOSPHATASE / ASPARTATE AMINOTRANSFERASE / BLOOD UREA NITROGEN / CARBON DIOXIDE / CHLORIDE / CHOLESTEROL / CREATINE PHOSPHOKINASE / CREATININE / GLUCOSE / LACTATE DEHYDROGENASE / LIPASE / PHOSPHORUS / POTASSIUM / SODIUM / TOTAL BILIRUBIN / TOTAL PROTEIN / URIC ACID: tissue Plasma
# [1] = 0.006 mg/kg, 72 h, dose level Low, time 3 day
# [2] = 0.006 mg/kg, 120 h, dose level Low, time 5 day
# [3] = 0.04 mg/kg, 72 h, dose level High, time 3 day
# [4] = 0.04 mg/kg, 120 h, dose level High, time 5 day
structure (smiles),measurement,setting,value
C=C1/C(=C\C=C2/CCC[C@]3(C)[C@@H]([C@H](C)CCCC(C)(C)O)CC[C@@H]23)C[C@@H](O)C[C@@H]1O [CALCITRIOL],ABSOLUTE BASOPHIL,[1],0 CELLS/uL
same,ABSOLUTE EOSINOPHIL,[1],45.67 CELLS/uL
same,ABSOLUTE LYMPHOCYTE,[1],10032.33 CELLS/uL
same,ABSOLUTE MONOCYTE,[1],329.67 CELLS/uL
same,ABSOLUTE SEGMENTED NEUTROPHIL,[1],1592.33 CELLS/uL
same,BASOPHIL,[1],0%
same,EOSINOPHIL,[1],0.33%
same,ERYTHROCYTE COUNT,[1],5.61 x10E6/uL
same,HEMATOCRIT,[1],34.07%
same,HEMOGLOBIN,[1],13.17 G/DL
same,LEUKOCYTE COUNT,[1],12 x10E3/uL
same,LYMPHOCYTE,[1],84%
same,MEAN CORPUSCULAR HEMOGLOBIN,[1],23.57 pg
same,MEAN CORPUSCULAR HEMOGLOBIN CONCENTRATION,[1],38.7 G/DL
same,MEAN CORPUSCULAR VOLUME,[1],60.93 fL
same,MONOCYTE,[1],2.67%
same,NEUTROPHIL,[1],13%
same,NUCLEATED RED BLOOD CELLS,[1],0 /100WBC
same,PLATELET COUNT,[1],1046.67 x10E3/uL
same,ALANINE AMINOTRANSFERASE,[1],66.67 u/L
same,ALBUMIN,[1],3.93 G/DL
same,ALKALINE PHOSPHATASE,[1],358 u/L
same,ASPARTATE AMINOTRANSFERASE,[1],93.67 u/L
same,BLOOD UREA NITROGEN,[1],17 mg/dL
same,CARBON DIOXIDE,[1],25.33 mmol/L
same,CHLORIDE,[1],101.33 MEQ/L
same,CHOLESTEROL,[1],73 mg/dL
same,CREATINE PHOSPHOKINASE,[1],357 u/L
same,CREATININE,[1],0.21 mg/dL
same,GLUCOSE,[1],146.67 mg/dL
same,LACTATE DEHYDROGENASE,[1],503.33 u/L
same,LIPASE,[1],11 u/L
same,PHOSPHORUS,[1],13.67 mg/dL
same,POTASSIUM,[1],6.19 MEQ/L
same,SODIUM,[1],143.5 MEQ/L
same,TOTAL BILIRUBIN,[1],0.17 mg/dL
same,TOTAL PROTEIN,[1],5.8 G/DL
same,URIC ACID,[1],1.47 mg/dL
same,ABSOLUTE BASOPHIL,[2],0 CELLS/uL
same,ABSOLUTE EOSINOPHIL,[2],0 CELLS/uL
same,ABSOLUTE LYMPHOCYTE,[2],11413 CELLS/uL
same,ABSOLUTE MONOCYTE,[2],402.33 CELLS/uL
same,ABSOLUTE SEGMENTED NEUTROPHIL,[2],1784.67 CELLS/uL
same,BASOPHIL,[2],0%
same,EOSINOPHIL,[2],0%
same,ERYTHROCYTE COUNT,[2],5.87 x10E6/uL
same,HEMATOCRIT,[2],34.33%
same,HEMOGLOBIN,[2],13.57 G/DL
same,LEUKOCYTE COUNT,[2],13.6 x10E3/uL
same,LYMPHOCYTE,[2],84%
same,MEAN CORPUSCULAR HEMOGLOBIN,[2],23.17 pg
same,MEAN CORPUSCULAR HEMOGLOBIN CONCENTRATION,[2],39.53 G/DL
same,MEAN CORPUSCULAR VOLUME,[2],58.53 fL
same,MONOCYTE,[2],3%
same,NEUTROPHIL,[2],13%
same,NUCLEATED RED BLOOD CELLS,[2],0 /100WBC
same,PLATELET COUNT,[2],1088.67 x10E3/uL
same,ALANINE AMINOTRANSFERASE,[2],57.33 u/L
same,ALBUMIN,[2],4.37 G/DL
same,ALKALINE PHOSPHATASE,[2],445.33 u/L
same,ASPARTATE AMINOTRANSFERASE,[2],99.67 u/L
same,BLOOD UREA NITROGEN,[2],19 mg/dL
same,CARBON DIOXIDE,[2],31.33 mmol/L
same,CHLORIDE,[2],95.33 MEQ/L
same,CHOLESTEROL,[2],61 mg/dL
same,CREATINE PHOSPHOKINASE,[2],435 u/L
same,CREATININE,[2],0.17 mg/dL
same,GLUCOSE,[2],145 mg/dL
same,LACTATE DEHYDROGENASE,[2],606.67 u/L
same,LIPASE,[2],10.33 u/L
same,PHOSPHORUS,[2],11.6 mg/dL
same,POTASSIUM,[2],5.78 MEQ/L
same,SODIUM,[2],141.37 MEQ/L
same,TOTAL BILIRUBIN,[2],0.13 mg/dL
same,TOTAL PROTEIN,[2],6.37 G/DL
same,URIC ACID,[2],1.6 mg/dL
same,ABSOLUTE BASOPHIL,[3],0 CELLS/uL
same,ABSOLUTE EOSINOPHIL,[3],117 CELLS/uL
same,ABSOLUTE LYMPHOCYTE,[3],9651 CELLS/uL
same,ABSOLUTE MONOCYTE,[3],117 CELLS/uL
same,ABSOLUTE SEGMENTED NEUTROPHIL,[3],6315 CELLS/uL
same,BASOPHIL,[3],0%
same,EOSINOPHIL,[3],0.67%
same,ERYTHROCYTE COUNT,[3],6 x10E6/uL
same,HEMATOCRIT,[3],37.07%
same,HEMOGLOBIN,[3],14.33 G/DL
same,LEUKOCYTE COUNT,[3],16.2 x10E3/uL
same,LYMPHOCYTE,[3],57.67%
same,MEAN CORPUSCULAR HEMOGLOBIN,[3],23.93 pg
same,MEAN CORPUSCULAR HEMOGLOBIN CONCENTRATION,[3],38.67 G/DL
same,MEAN CORPUSCULAR VOLUME,[3],62 fL
same,MONOCYTE,[3],0.67%
same,NEUTROPHIL,[3],41%
same,NUCLEATED RED BLOOD CELLS,[3],0 /100WBC
same,PLATELET COUNT,[3],1193.33 x10E3/uL
same,ALANINE AMINOTRANSFERASE,[3],118.67 u/L
same,ALBUMIN,[3],3.1 G/DL
same,ALKALINE PHOSPHATASE,[3],333 u/L
same,ASPARTATE AMINOTRANSFERASE,[3],517.33 u/L
same,BLOOD UREA NITROGEN,[3],95 mg/dL
same,CARBON DIOXIDE,[3],24 mmol/L
same,CHLORIDE,[3],100 MEQ/L
same,CHOLESTEROL,[3],98.67 mg/dL
same,CREATINE PHOSPHOKINASE,[3],1977.67 u/L
same,CREATININE,[3],1.67 mg/dL
same,GLUCOSE,[3],129.67 mg/dL
same,LACTATE DEHYDROGENASE,[3],1234.67 u/L
same,LIPASE,[3],10 u/L
same,PHOSPHORUS,[3],17.23 mg/dL
same,POTASSIUM,[3],5.62 MEQ/L
same,SODIUM,[3],140.85 MEQ/L
same,TOTAL BILIRUBIN,[3],0.2 mg/dL
same,TOTAL PROTEIN,[3],5.9 G/DL
same,URIC ACID,[3],1.93 mg/dL
same,ABSOLUTE BASOPHIL,[4],0 CELLS/uL
same,ABSOLUTE EOSINOPHIL,[4],37.4 CELLS/uL
same,ABSOLUTE LYMPHOCYTE,[4],15678.4 CELLS/uL
same,ABSOLUTE MONOCYTE,[4],350.8 CELLS/uL
same,ABSOLUTE SEGMENTED NEUTROPHIL,[4],1413.4 CELLS/uL
same,BASOPHIL,[4],0%
same,EOSINOPHIL,[4],0.2%
same,ERYTHROCYTE COUNT,[4],6.14 x10E6/uL
same,HEMATOCRIT,[4],35.74%
same,HEMOGLOBIN,[4],13.9 G/DL
same,LEUKOCYTE COUNT,[4],17.48 x10E3/uL
same,LYMPHOCYTE,[4],89.8%
same,MEAN CORPUSCULAR HEMOGLOBIN,[4],22.62 pg
same,MEAN CORPUSCULAR HEMOGLOBIN CONCENTRATION,[4],38.88 G/DL
same,MEAN CORPUSCULAR VOLUME,[4],58.22 fL
same,MONOCYTE,[4],2%
same,NEUTROPHIL,[4],8%
same,NUCLEATED RED BLOOD CELLS,[4],0.2 /100WBC
same,PLATELET COUNT,[4],1031.8 x10E3/uL
same,ALANINE AMINOTRANSFERASE,[4],34.8 u/L
same,ALBUMIN,[4],3.62 G/DL
same,ALKALINE PHOSPHATASE,[4],233.8 u/L
same,ASPARTATE AMINOTRANSFERASE,[4],68.4 u/L
same,BLOOD UREA NITROGEN,[4],19.4 mg/dL
same,CARBON DIOXIDE,[4],30.2 mmol/L
same,CHLORIDE,[4],98.6 MEQ/L
same,CHOLESTEROL,[4],99.6 mg/dL
same,CREATINE PHOSPHOKINASE,[4],347.4 u/L
same,CREATININE,[4],0.2 mg/dL
same,GLUCOSE,[4],143.4 mg/dL
same,LACTATE DEHYDROGENASE,[4],272.4 u/L
same,LIPASE,[4],9.2 u/L
same,PHOSPHORUS,[4],10.48 mg/dL
same,POTASSIUM,[4],5.5 MEQ/L
same,SODIUM,[4],142.72 MEQ/L
same,TOTAL BILIRUBIN,[4],0.1 mg/dL
same,TOTAL PROTEIN,[4],5.84 G/DL
same,URIC ACID,[4],1.34 mg/dL
